Results: doi:10.1101/2025.01.28.635346v1 (bioRxiv, 2025)
Bridge positions count the residues as written; N and C are the ends. Side chains are listed from the residue outwards. Peptide text beside a SMILES is read from it. * marks the point of attachment. Butanoyl(4-(4-I-phenyl)) = O=C(CCCc1ccc(I)cc1)*; PEG2 = NCCOCCOCCC(=O)O

Key:
integrin α8β1 = integrin α8β1 (Homo sapiens, UniProt P05556+P53708); assay: ELISA competition assay, integrin α8β1; assay type: binding
integrin αvβ6 [1] = biological target: T1, integrin αvβ6 (Homo sapiens, UniProt P06756+P18564); assay: ELISA competition assay, integrin αvβ6 binding to LAP; conditions: αvβ6 IC50, ELISA competition vs LAP; mean, n ≥ 3
integrin αIIbβ3 = biological target: T2, integrin αIIbβ3 (Homo sapiens, UniProt P05106+P08514); assay: ELISA competition assay, integrin αIIbβ3; assay type: binding
T2 sequence (P08514 32-993 limits assumed): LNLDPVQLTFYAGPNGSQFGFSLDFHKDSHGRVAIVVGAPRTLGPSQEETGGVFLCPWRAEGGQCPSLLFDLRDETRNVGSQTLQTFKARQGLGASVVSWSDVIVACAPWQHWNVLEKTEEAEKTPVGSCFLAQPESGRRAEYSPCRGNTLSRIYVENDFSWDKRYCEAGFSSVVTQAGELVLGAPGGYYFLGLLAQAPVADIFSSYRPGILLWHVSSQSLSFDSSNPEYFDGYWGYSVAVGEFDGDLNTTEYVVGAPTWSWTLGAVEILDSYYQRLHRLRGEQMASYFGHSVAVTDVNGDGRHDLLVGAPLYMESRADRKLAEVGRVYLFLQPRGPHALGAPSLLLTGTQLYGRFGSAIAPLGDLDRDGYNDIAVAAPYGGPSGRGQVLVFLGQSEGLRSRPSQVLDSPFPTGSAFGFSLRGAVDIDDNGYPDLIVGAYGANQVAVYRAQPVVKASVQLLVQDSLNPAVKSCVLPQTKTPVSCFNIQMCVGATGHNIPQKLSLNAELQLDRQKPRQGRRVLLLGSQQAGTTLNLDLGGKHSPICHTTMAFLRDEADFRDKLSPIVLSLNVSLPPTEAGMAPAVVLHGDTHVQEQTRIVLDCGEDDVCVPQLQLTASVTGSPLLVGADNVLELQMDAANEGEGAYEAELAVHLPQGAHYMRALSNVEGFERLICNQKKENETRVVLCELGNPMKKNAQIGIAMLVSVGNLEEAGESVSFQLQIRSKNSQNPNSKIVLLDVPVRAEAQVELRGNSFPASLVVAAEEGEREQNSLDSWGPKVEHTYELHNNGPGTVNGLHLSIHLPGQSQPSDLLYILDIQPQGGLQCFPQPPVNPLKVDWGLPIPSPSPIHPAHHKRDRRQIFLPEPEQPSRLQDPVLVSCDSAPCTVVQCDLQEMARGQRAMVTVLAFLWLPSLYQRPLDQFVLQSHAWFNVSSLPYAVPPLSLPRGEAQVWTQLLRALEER
T2 sequence (P05106 27-718 limits assumed): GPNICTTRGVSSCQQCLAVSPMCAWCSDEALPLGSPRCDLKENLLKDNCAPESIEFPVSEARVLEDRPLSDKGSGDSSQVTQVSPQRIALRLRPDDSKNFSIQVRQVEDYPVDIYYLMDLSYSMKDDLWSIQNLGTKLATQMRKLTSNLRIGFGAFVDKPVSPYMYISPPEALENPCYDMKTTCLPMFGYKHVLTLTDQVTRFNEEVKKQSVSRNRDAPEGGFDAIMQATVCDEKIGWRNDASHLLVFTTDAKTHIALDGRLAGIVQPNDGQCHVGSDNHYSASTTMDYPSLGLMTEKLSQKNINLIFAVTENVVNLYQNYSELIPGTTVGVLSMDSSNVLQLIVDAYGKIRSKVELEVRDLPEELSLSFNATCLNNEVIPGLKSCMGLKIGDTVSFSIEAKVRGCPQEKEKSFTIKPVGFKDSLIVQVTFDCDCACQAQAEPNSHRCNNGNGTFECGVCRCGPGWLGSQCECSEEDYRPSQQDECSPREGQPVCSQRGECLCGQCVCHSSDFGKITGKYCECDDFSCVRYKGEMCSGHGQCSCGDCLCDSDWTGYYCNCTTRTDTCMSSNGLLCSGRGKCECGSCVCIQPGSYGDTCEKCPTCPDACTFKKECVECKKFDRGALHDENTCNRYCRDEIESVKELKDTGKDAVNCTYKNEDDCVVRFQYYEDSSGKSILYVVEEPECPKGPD

integrin αvβ3 [2] = biological target: T3, integrin αvβ3 (Homo sapiens, UniProt P05106+P06756); assay: ELISA competition assay, integrin αvβ3; assay type: binding
integrin αvβ5 = integrin αvβ5 (Homo sapiens, UniProt P06756+P18084); assay: ELISA competition assay, integrin αvβ5; assay type: binding
integrin αvβ1 = integrin αvβ1 (Homo sapiens, UniProt P05556+P06756); assay: ELISA competition assay, integrin αvβ1; assay type: binding
integrin αvβ8 [3] = biological target: T4, integrin αvβ8 (Homo sapiens, UniProt P06756+P26012); assay: ELISA competition assay, integrin αvβ8 binding to LAP
integrin α5β1 = integrin α5β1 (Homo sapiens, UniProt P05556+P08648); assay: ELISA competition assay, integrin α5β1; assay type: binding
integrin αvβ8 [4] = biological target: T4, integrin αvβ8; assay: AlphaLISA competition assay vs LAP, biotinylated αvβ8; assay type: binding
integrin αvβ6 [5] = biological target: T1, integrin αvβ6; assay: AlphaLISA competition assay vs LAP, biotinylated αvβ6; assay type: binding
integrin αvβ3 [6] = biological target: T3, integrin αvβ3; assay: AlphaLISA competition assay vs LAP, biotinylated αvβ3; assay type: binding

SMILES: CC(C)C[C@H](NC(=O)[C@H](CC(=O)O)NC(=O)CNC(=O)[C@H](CCCNC(=N)N)NC(=O)[C@@H](NC(=O)[C@H](Cc1ccccc1)NC(=O)[C@H](Cc1ccc(O)cc1)NC(=O)[C@@H]1CCC(=O)NCC(=O)NCC(=O)N[C@@H](CCCCNC(=O)CCOCCOCCNC(=O)CCCc2ccc(I)cc2)C(=O)NCC(=O)N[C@@H](Cc2c[nH]cn2)C(=O)N[C@@H](C(C)C)C(=O)N2CCC[C@H]2C(=O)N1)C(C)C)C(=O)N[C@@H](CCC(N)=O)C(=O)N[C@@H](CO)C(=O)N[C@@H](Cc1ccccc1)C(=O)N[C@@H](Cc1ccc(O)cc1)C(=O)NCC(=O)O [lassotide 48] (GGK([PEG2-Butanoyl(4-(4-I-phenyl))])GHVPEYFVRGDLQSFYG-OH; lactam N-8; C-terminus assumed)
- IC50 (integrin α8β1): > 10000 nM
- IC50 (integrin αvβ6 [1]): 0.7 nM
- IC50 (integrin αIIbβ3): 446 nM
- IC50 (integrin αvβ3 [2]): 315 nM
- IC50 (integrin αvβ5): > 10000 nM
- IC50 (integrin αvβ1): 46 nM
- IC50 (integrin αvβ8 [3]): 0.8 nM
- IC50 (integrin α5β1): 2590 nM

SMILES: CC(C)C[C@H](NC(=O)[C@H](CC(=O)O)NC(=O)CNC(=O)[C@H](CCCNC(=N)N)NC(=O)[C@@H](NC(=O)[C@H](Cc1ccccc1)NC(=O)[C@H](Cc1ccc(O)cc1)NC(=O)[C@@H]1CCC(=O)NCC(=O)NCC(=O)N[C@@H](CCCCN)C(=O)NCC(=O)N[C@@H](Cc2c[nH]cn2)C(=O)N[C@@H](C(C)C)C(=O)N2CCC[C@H]2C(=O)N1)C(C)C)C(=O)N[C@@H](CCC(N)=O)C(=O)N[C@@H](CO)C(=O)N[C@@H](Cc1ccccc1)C(=O)N[C@@H](Cc1ccc(O)cc1)C(=O)NCC(=O)O [lassotide 37] (GGKGHVPEYFVRGDLQSFYG-OH; lactam N-8; C-terminus assumed)
- IC50 (integrin α8β1): > 10000 nM
- IC50 (integrin αvβ6 [1]): 3.1 nM
- IC50 (integrin αIIbβ3): 394 nM
- IC50 (integrin αvβ3 [2]): 186 nM
- IC50 (integrin αvβ5): > 10000 nM
- IC50 (integrin αvβ1): 21 nM
- IC50 (integrin αvβ8 [3]): 9 nM
- IC50 (integrin α5β1): 944 nM

SMILES: CC[C@H](C)[C@H](NC(=O)[C@@H]1CCCN1C(=O)[C@@H](NC(=O)[C@H](CCCNC(=N)N)NC(=O)CNC(=O)[C@H](CC(=O)O)NC(=O)[C@H](CC(C)C)NC(=O)[C@H](Cc1ccccc1)NC(=O)[C@H](Cc1ccc(O)cc1)NC(=O)[C@@H]1CCC(=O)NCC(=O)NCC(=O)N[C@@H](C)C(=O)NCC(=O)N[C@@H](Cc2c[nH]cn2)C(=O)N[C@@H](C(C)C)C(=O)N2CCC[C@H]2C(=O)N1)[C@@H](C)O)C(=O)N[C@@H](CO)C(=O)N[C@@H](Cc1ccccc1)C(=O)N[C@@H](Cc1ccc(O)cc1)C(=O)NCC(=O)O [lassotide 9] (GGAGHVPEYFLDGRTPISFYG-OH; lactam N-8; C-terminus assumed)
- IC50 (integrin αvβ8 [4]): 1300 nM
- IC50 (integrin αvβ6 [5]): > 10000 nM
- IC50 (integrin αvβ3 [6]): > 10000 nM

SMILES: CC[C@H](C)[C@H](NC(=O)CNC(=O)[C@@H](NC(=O)[C@H](Cc1ccccc1)NC(=O)[C@H](Cc1ccc(O)cc1)NC(=O)[C@@H]1CCC(=O)NCC(=O)NCC(=O)N[C@@H](CCCNC(=N)N)C(=O)NCC(=O)N[C@@H](CC(=O)O)C(=O)N[C@@H](CC(C)C)C(=O)N2CCC[C@H]2C(=O)N1)C(C)C)C(=O)NCC(=O)N[C@H](C(=O)N1CCC[C@H]1C(=O)N[C@H](C(=O)N[C@@H](CO)C(=O)N[C@@H](Cc1ccccc1)C(=O)N[C@@H](Cc1ccc(O)cc1)C(=O)NCC(=O)O)[C@@H](C)CC)[C@@H](C)O [lassotide 11] (GGRGDLPEYFVGIGTPISFYG-OH; lactam N-8; C-terminus assumed)
- IC50 (integrin αvβ8 [4]): > 10000 nM
- IC50 (integrin αvβ6 [5]): > 10000 nM
- IC50 (integrin αvβ3 [6]): > 10000 nM
